# Source: patent US20120258938A1, “Enzymatic Production or Chemical Synthesis and Uses for 5,7-Dienes and UVB Conversion Products Thereof” (priority 2008, published 2012)
# Tests used:
# Human dermal fibroblasts = test: TGF-b1 induced collagen protein production by dermal fibroblasts; format: cell-based; conditions: collagenase sensitive protein; for Collagen CPM/Well (mean ± SEM) × 10^−5 FB: hrTGF-b1 5 ng/ml, secosteroids at 10^−10M, 3[H]-proline
# Procedure: Human dermal fibroblasts grown from explant skin cultures at less than 10 subpassages were plated at 5×10^4 cells per well in 24 well Costar tissue culture plates and were grown to confluency. Complete MEM was then changed to serum free Complete MEM without non-essential amino acids. After 24 hours, culture medium was changed (450 μl/well) to the same and secosteroids listed in Table 14 were added in 10 μl absolute alcohol (ETOH) to a final concentration of 10^−9 and M, 3 replicate wells each. Vehicle control wells (n=6) contained 10 μl (ETOH). After 2 hour pre-incubation, hr TGF-b1 (R and D systems) was added to each well except ETOH wells at a final concentration of 5 ng/ml. After 48 hours of culture, plate wells were paused with 1μ Cl ^3[H]-proline. After 24 hours, culture supernatants were harvested and collagenase sensitive protein was determined as previously described (44).
# [1] = system: human dermal fibroblast line; test: TGF-b1 induced hyaluronan synthesis by dermal fibroblasts; format: cell-based; conditions: hrTGF-b1 5 ng/ml, secosteroids at 10^−10M
# From the text: There were found no significant differences in fibroblast numbers per well and no significant differences in trypan blue exclusion between control wells vs those with secosteroids range 95-100% (data not shown).
# [2] = system: SK Mel 188 human melanoma cells; test: Soft agar colony formation, SKMEL 188 melanoma; format: cell-based; conditions: for colony formation in soft agar versus vehicle control: SKMEL 188, 10 nM
# Procedure: Growth and survival of prostate cancer cells (PC3) and melanoma cells SKMEL 188 and AbC1 was determined by following their ability to form colonies in soft agar. Cells growing in monolayer culture were trypsinized and resuspended (1,000 cells/well) in 0.25 ml medium containing 0.4% agarose and 5% charcoal stripped serum (HyClone).
# Cell suspensions were added to 0.8% agar layer in 24 well plates. […] Each condition was tested in quadruplicate. An ethanol solvent control (amount of ethanol equivalent to test) as well as a media-only control was included in the assay. Cells were allowed to grow at 37° with 5% CO2 over two weeks with secosteroids in fresh media (100 μL) being added after every 72 h. Soft agar colonies were scored and stained with 0.5 mg/ml MTT reagent (Promega), 500 μL/well after two weeks. Colonies were then counted under the microscope and number of units was calculated as number of colonies formed divided by the number of cells seeded×100.
# cytochrome P450scc = biological target: T1, cytochrome P450scc (Bos taurus, UniProt P00189); test: Metabolism by cytochrome P450scc in cyclodextrin
# T1 sequence (P00189 40-520): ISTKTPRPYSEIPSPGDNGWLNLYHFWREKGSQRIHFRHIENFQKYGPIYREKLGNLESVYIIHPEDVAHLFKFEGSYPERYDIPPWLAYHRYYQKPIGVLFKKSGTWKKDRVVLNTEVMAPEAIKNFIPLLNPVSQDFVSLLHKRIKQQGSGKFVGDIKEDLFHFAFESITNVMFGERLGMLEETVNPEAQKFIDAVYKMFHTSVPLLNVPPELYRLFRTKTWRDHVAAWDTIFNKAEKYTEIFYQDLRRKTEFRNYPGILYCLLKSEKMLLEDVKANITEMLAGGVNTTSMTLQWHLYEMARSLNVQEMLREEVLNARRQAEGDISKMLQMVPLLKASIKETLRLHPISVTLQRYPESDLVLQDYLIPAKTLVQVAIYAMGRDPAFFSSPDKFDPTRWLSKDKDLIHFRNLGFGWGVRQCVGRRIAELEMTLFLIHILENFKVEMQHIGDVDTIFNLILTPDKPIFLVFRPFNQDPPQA
# Procedure: Adrenodoxin was expressed in Escherichia coli and purified as described before (41). […] Metabolites were analysed using a Perkin Elmer HPLC equipped with a C18 column (Brownlee Aquapore, 22 cm×4.6 mm, particle size 7 μm).
# HaCaT keratinocytes = test: [3H]-thymidine DNA synthesis in HaCaT keratinocytes; format: cell-based, human; conditions: HaCaT
# Procedure: HaCaT keratinocytes were plated in 96-well plates at the density of 10,000 cells/well in DMEM (Cellgro, Herndon Va.) containing 5% charcoal treated fetal bovine serum (Hyclone, Logan, Utah), 1% antibiotic solution (PSA, Sigma, St. Louis, […].). Next day, media were changed and vehicle (ethanol) or secosteroids added. Cells were incubated with compounds for 48 hours. [^3H]-thymidine (Amersham Biosciences, Picataway, N.Y.) was added to the final concentration of 1 μCi/mL medium for last 12 hours of incubation. Media were then discarded, cells detached with trypsin and harvested on a glass fiber filter (Packard, Meriden, Calif.). Radioactivity was measured with a beta counter (Direct Beta-Counter Matrix 9600; Packard).
# To measure DNA synthesis, keratinocytes, melanoma or prostate cancer cells were plated in 96-well plates. After overnight incubation tested compounds were added to the medium to achieve final concentrations 10^−7-10^−10 [M]. 100 μl of medium per well containing vitamin D3 compound was added to the cells. After 36 hours of incubation [3H]-thymidine (specific activity 88.0 Ci/mmol; Amersham Biosciences, Picataway, N.Y., USA) was added at 1 μCi/mL medium. After 12 hours, media were discarded, cells detached with trypsin and harvested on a glass fiber filter (Packard, Meriden, Calif., USA). 3H-radioactivity was measured with a beta counter (Direct Beta-Counter Matrix 9600; Packard).
# HaCaT keratinocytes were plated out in 24-well plates, 50,000 cells/well. […] After 4 h media were discarded, cells washed with cold phosphate-buffered saline and incubated in 10% trichloroacetic acid for 30 min. Cells were washed again with phosphate-buffered saline, 100 μl 1.0 M NaOH was added to each well and plates incubated for 30 min at 30° C. The supernatant was collected and the ^3H-radioactivity measured by scintillation counting using a Direct Beta-Counter Matrix 9600 (Packard). The [^3H]-thymidine incorporation into DNA was measured separately for each well and the results entered into the calculation as the mean of 6 wells for each condition in a series of six experiments (n=36). Data were analyzed with GraphPad Prizm Version 4.0 (GraphPad Software Inc., San Diego, Calif., USA) using t tests. Differences were considered significant when p<0.05.
molecule,measurement,setting,value
"1,25 (OH)2 D3",Collagen CPM/Well (mean ± SEM) × 10^−5 FB,Human dermal fibroblasts,310 ± 100 CPM/Well × 10^−5 FB
same,Hyaluronan CPM/Well (mean ± SEM) × 10^−5 FB,[1],297 ± 18 CPM/Well × 10^−5 FB
"C=C1C(=CC=C2CCCC3(C)C2CCC3C(C)(O)CCC(O)C(C)C)CC(O)CC1O (stereo not drawn) [1,20,24(OH)2D3, (5Z,7E)-9,10-secocholesta-5,7,10(19)-triene-1α,3β,20,24-tetrol]",colony formation in soft agar versus vehicle control,[2],greatly inhibited colony formation
"C=C1C(=CC=C2CCCC3(C)C2CCC3C(C)(O)CCCC(C)(C)O)CC(O)CC1O (stereo not shown) [1,20,25(OH)2D3, 1,20,25-trihydroxycholecalciferol]",colony formation in soft agar versus vehicle control,[2],greatly inhibited colony formation
"C=C1/C(=C\C=C2/CCC[C@]3(C)[C@@H]([C@H](C)CCCC(C)C)CC[C@@H]23)C[C@@H](O)C[C@@H]1O [1α-hydroxycholecalciferol, (5Z,7E)-9,10-secocholesta-5,7,10(19)-triene-1α,3β-diol]",Km,cytochrome P450scc,41 ± 6 µM
same,kcat,cytochrome P450scc; substrate in 0.45% cyclodextrin,1.3±0.1 mol/min/mol P450scc
"CC(O)C1(O)CCC2C3=CC=C4CC(O)CCC4(C)C3CCC21C (stereo not shown) [17,20 R(OH)27DHP]",Collagen CPM/Well (mean ± SEM) × 10^−5 FB,Human dermal fibroblasts,173 ± 11 CPM/Well × 10^−5 FB
same,Hyaluronan CPM/Well (mean ± SEM) × 10^−5 FB,[1],607 ± 127 CPM/Well × 10^−5 FB
"CC(O)C1(O)CCC2C3=CC=C4CC(O)CCC4(C)C3CCC21C (stereo not shown) [17,20 S(OH)27DHP]",Collagen CPM/Well (mean ± SEM) × 10^−5 FB,Human dermal fibroblasts,213 ± 17 CPM/Well × 10^−5 FB
same,Hyaluronan CPM/Well (mean ± SEM) × 10^−5 FB,[1],227 ± 53 CPM/Well × 10^−5 FB
"CC(O)C1(O)CCC2C3=CC=C4CC(O)CCC4(C)C3CCC21C (stereo not shown) [17,20(OH)27DHP]",TGF-b1 induced collagen protein production,Human dermal fibroblasts; [3H]-proline,inhibited TGF-b1 induced collagen protein production
"C[C@]12CC[C@H]3C(=CC=C4C[C@@H](O)CC[C@@]43C)[C@@H]1CC[C@@H]2C(=O)O [17-COOH, (5Z,7E)-3β-hydroxy-androsta-5,7-diene-17β-carboxylic acid]",DNA synthesis,"HaCaT keratinocytes; 72 hrs, 0.01-100 nM",DNA synthesis was inhibited at all concentrations
"C=C1CCC(O)CC1=CC=C1CCCC2(C)C1CCC2(O)C(C)(O)CC(O)CC(C)C (stereo not drawn) [17α,20,23-trihydroxycholecalciferol, (5Z,7E)-9,10-secocholesta-5,7,10(19)-triene-3β,17α,20,23-tetrol]","keratinocyte proliferation compared with 1α,25-dihydroxycholecalciferol",HaCaT keratinocytes; 48 h,inhibit keratinocyte proliferation more potently than the control compound
"C=C1CCC(O)CC1=CC=C1CCCC2(C)C1CCC2C(C)(O)CCC(O)C(C)C (stereo not drawn) [20,24(OH)2D3, (5Z,7E)-9,10-secocholesta-5,7,10(19)-triene-3β,20,24-triol]",colony formation in soft agar versus vehicle control,[2],greatly inhibited colony formation
"C=C1CCC(O)CC1=CC=C1CCCC2(C)C1CCC2C(C)(O)CCCC(C)(C)O (stereo not drawn) [20,25(OH)2D3, (5Z,7E)-9,10-secocholesta-5,7,10(19)-triene-3β,20,25-triol]",colony formation in soft agar versus vehicle control,[2],greatly inhibited colony formation
"C=C1CCC(O)CC1=CC=C1CCCC2(C)C1CCC2C(C)(O)CCCC(C)CO (stereo not drawn) [20,26(OH)2D3, (5Z,7E)-9,10-secocholesta-5,7,10(19)-triene-3β,20,26-triol]",colony formation in soft agar versus vehicle control,[2],greatly inhibited colony formation
"CC(=O)[C@H]1CC[C@H]2C3=CC=C4C[C@@H](O)CC[C@]4(C)[C@H]3CC[C@]12C [compound 1, 3β-hydroxypregna-5,7-dien-20-one]",Collagen CPM/Well (mean ± SEM) × 10^−5 FB,Human dermal fibroblasts,292 ± 31 CPM/Well × 10^−5 FB
same,Hyaluronan CPM/Well (mean ± SEM) × 10^−5 FB,[1],230 ± 34 CPM/Well × 10^−5 FB
"(5Z,7E)-9,10-secoandrosta-5,7,10(19)-trien-3β-ol [aD3]",colony formation on soft agar,"[2]; SKMEL-188, dose dependent",suppress colony formation on soft agar
